“Also recorded” adds a separate entry of the source. Where two headings read alike, the source gives them in different places.
Columns and labels:
PC12 cells [1] = experiment: in vitro; conditions: PC-12 cells
Description: (§1) Well-differentiated rat adrenal pheochromocytoma cells (PC12) and the corresponding culture medium (WHAA24F163) were obtained from Procell Life Technology Co., Ltd. (Wuhan, China). The culture medium was supplemented with 10% fetal bovine serum (FBS, 164210-50) and 1% antibiotics (a penicillin–streptomycin mixture). PC12 cells were seeded into sterile 96-well plates at a density of 7000 cells per well (100 μL) and incubated for 24 h in a humidified incubator at 37 °C with 5% CO2. Subsequently, the cells were treated with varying concentrations of the test compounds (10, 20, and 50 μM in 100 μL) and cultured for an additional 24 h. Cell viability was assessed using the 3-(4,5-dimethylthiazol-2-yl)-2,5-diphenyltetrazolium bromide (MTT) assay (Xavier, Wuhan, China), following protocols described in a prior study.

PC12 cells [2] = experiment: Neuroprotection in H2O2-induced injury model, MTT assay; format: cell-based; conditions: for neuroprotective activity: 5 to 50 μM; for viability at 50 µM: Rattus norvegicus, PC-12, read-out: cell viability
Description: To assess the neuroprotective potential of the compounds, an H2O2-induced injury model in PC12 cells was established. PC12 cells were seeded into 96-well plates and incubated for 24 h, as described previously. […].

[3] = target: T1, BChE (horse-serum, E.C. 3.1.1.8) (Equus caballus, UniProt P81908); experiment: biochemical
T1 construct: Sigma, St. Louis, MO, USA, horse-serum, E.C; 3.1.1.8; purchased Sigma; host or cells: horse serum
T1 sequence (P81908 whole entry): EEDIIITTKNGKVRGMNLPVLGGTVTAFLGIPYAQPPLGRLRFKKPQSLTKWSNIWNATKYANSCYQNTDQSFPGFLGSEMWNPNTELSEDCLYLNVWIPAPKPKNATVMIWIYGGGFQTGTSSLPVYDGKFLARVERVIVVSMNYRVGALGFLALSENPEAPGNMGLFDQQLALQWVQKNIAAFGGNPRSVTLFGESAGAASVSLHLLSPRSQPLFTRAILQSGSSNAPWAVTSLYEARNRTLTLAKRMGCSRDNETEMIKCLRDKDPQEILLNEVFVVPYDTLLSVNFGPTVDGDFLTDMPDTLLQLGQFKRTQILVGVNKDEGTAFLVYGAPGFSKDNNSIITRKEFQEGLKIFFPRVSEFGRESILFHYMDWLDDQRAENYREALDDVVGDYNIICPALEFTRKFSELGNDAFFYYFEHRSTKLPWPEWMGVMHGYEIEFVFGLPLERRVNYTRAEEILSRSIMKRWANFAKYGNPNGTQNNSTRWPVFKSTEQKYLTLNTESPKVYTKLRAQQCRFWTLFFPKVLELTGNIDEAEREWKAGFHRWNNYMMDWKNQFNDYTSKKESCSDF
Description: The inhibitory activity of BChE was evaluated using 96-well plates on a microplate reader (Varioskan LUX, Thermo Fisher, Waltham, MA, USA) based on a modified Ellman method. Briefly, 25 μL of BChE solution (0.2 U·mL^−1, Sigma, St. Louis, MO, USA, horse-serum, E.C. 3.1.1.8) was combined with 65 μL of phosphate buffer (PBS, 0.1 M, pH 8.0), 125 μL of 5,5′-dithio-bis(2-nitrobenzoic acid) (DTNB, 3 mM), and 10 μL of a test compound at varying concentrations. Small molecules (50 mM, Topscience) were initially dissolved in dimethyl sulfoxide (DMSO) and subsequently diluted to desired concentrations using PBS. The reaction mixture was preincubated at 37 °C for 20 min. Following this, 25 μL of butyrylthiocholine iodide (BTC, 15 mM) was added, and the absorbance was measured at 412 nm in 30-s intervals for 3 min.

BChE [4] = target: T2, BChE (Equus caballus, UniProt P81908); experiment: BChE enzyme kinetic study (Lineweaver-Burk); format: biochemical; design: Sigma, St. Louis, MO, USA, horse-serum, E.C; 3.1.1.8; purchased Sigma; host or cells: horse serum; conditions: for inhibition type: Lineweaver-Burk plots; for reversibility of inhibition: plots of v vs [BChE] at different inhibitor concentrations
T2 sequence (P81908 whole entry): as above
Description: Kinetic studies were performed to clarify the inhibition mechanism of piboserod and Rotigotine. Figure 4A,B illustrates the relationship between BChE concentration ([BChE]) and catalytic rate (v) at different inhibitor concentrations ([I]). […] Lineweaver–Burk plots were used to characterize their inhibition types. […]. The inhibition constant (Ki) values were calculated based on Lineweaver–Burk secondary plots (Figure 4C,D). […]. […].
Kinetic studies were conducted to measure reaction rates using the same methodology as in the enzyme inhibition experiments. […]. The relationship between reaction rates and enzyme concentrations was used to assess whether the inhibition was reversible. Additionally, reaction rates (v, △OD417 ·min^−1) were measured at a constant BChE concentration (0.2 U·mL^−1) while varying substrate concentrations (0.05, 0.1, 0.2, 0.4, 0.8 mM). A double-reciprocal Lineweaver–Burk plot of reaction rate versus substrate concentration was generated to elucidate the inhibition type based on the intersection points of the curves. Common inhibition types were identified as follows: competitive (intersects on the Y-axis), non-competitive (intersects on the X-axis), uncompetitive (parallel lines), and mixed (intersects in the second or third quadrant). […]

BChE [5] = target: T2, BChE; experiment: Fluorescence quenching experiment (Stern-Volmer, Van't Hoff analysis); format: binding; conditions: for quenching rate constant (Kq): τ0 10^−8 s; for Kd: Ka (binding constant); for ∆H / ∆S: Van't Hoff, 298-310 K, regarded as a constant
Description: Then, the Stern–Volmer Equation (1) was applied to analyze their quenching mechanisms.
Their binding constants (Ka) and binding sites (n) (Table 4) with BChE were calculated using the double logarithmic Equation (2) (Figure 5G,H).
Thermodynamic parameter analysis offers valuable insights into the predominant interaction forces governing the binding process between ligand and protein, which may encompass hydrogen bonding, electrostatic interactions, hydrophobic effects, van der Waals forces, and π-effects. By applying the Van’t Hoff Equation (3) and the Gibbs–Helmholtz Equation (4), the thermodynamic parameters—including change (ΔS), enthalpy change (ΔH), and Gibbs free energy change (ΔG)—for the interactions of piboserod and Rotigotine at various temperatures.
Fluorescence quenching experiment. The fluorescence intensity of the inhibitor–BChE complex was measured using a microplate reader with an all-black 96-well plate at three different temperatures (298, 304, and 310 K). The excitation wavelength was set to 280 nm, and the emission spectrum was scanned over the range of 320–460 nm with a slit width of 5 nm. The BChE concentration was maintained constant at 5 U·mL^−1, while the compound concentration was varied in a gradient (0 to 50 μM). After mixing the compound and BChE, the samples were incubated at the designated temperature for 30 min prior to measurement. A PBS solution was used as a blank to account for background fluorescence and ensure accurate correction of the fluorescence intensity measurements.

in vitro = conditions: rat
Description: as §1

[6] = PC-12 cells, hydrogen peroxide injury

## CN1C[C@H](CNC(=O)OCc2ccccc2)C[C@@H]2c3cccc4c3c(cn4C)C[C@H]21 [Metergoline]
PC12 cells [1]; lowest concentration (10 μM)
  neurotoxicity: no neurotoxicity
PC12 cells [1]; maximum concentration
  cytotoxicity: higher cytotoxicity than that of Tacrine
PC12 cells [2]; PC-12 cells, hydrogen peroxide injury, low concentrations (5–10 μM)
  neuroprotective effect: modest neuroprotective effects
[3]
  IC50: 18.4 ± 3.29 µM

## CCCN(CCc1cccs1)[C@H]1CCc2c(O)cccc2C1 [Rotigotine]
BChE [4]
  Ki: 6.76 µM
  inhibition type: non-competitive inhibitor; also recorded: non-competitive inhibition
  reversibility of inhibition: reversibly inhibit BChE
BChE [5]; 298 K
  Ksv: 2640 L/mol
  n (binding sites): 1.066
  ∆G: -5.067 kcal/mol
  quenching rate constant (Kq): 2.64e+11 M⁻¹ s⁻¹
  Kd: 19.7 µM
BChE [5]; 304 K
  Ksv: 2250 L/mol
  n (binding sites): 1.022
  ∆G: -4.787 kcal/mol
  Kd: 34.5 µM
BChE [5]; 310 K
  Ksv: 1540 L/mol
  n (binding sites): 0.975
  Kd: 68.1 µM
BChE [5]
  ∆H: -18.98 kcal/mol
  ∆S: −195.34 J·mol^−1·K^−1
PC12 cells [2]; [6]
  neuroprotective activity: significant neuroprotective activities
PC12 cells [2]
  viability at 50 µM: 70%
[3]
  IC50: 12.8 ± 4.22 µM

## COc1cc2c(NC3CCN(C)CC3)nc(N3CCCN(C)CC3)nc2cc1OCc1ccccc1 [TM2-115]
[3]; read-out: IC50
  IC50: ~50 µM

## Nc1c2c(nc3ccccc13)CCCC2 [Tacrine]
In vitro
  viability at 50 µM: 65%

## CCCCN1CCC(CNC(=O)c2c3n(c4ccccc24)CCCO3)CC1 [piboserod]
BChE [4]
  Ki: 10.7 µM
  inhibition type: mixed inhibitor; also recorded: mixed-type inhibition
  reversibility of inhibition: reversibly inhibit BChE
BChE [4]; Lineweaver-Burk secondary plots
  α value (ratio of non-competitive to competitive inhibition constants): 3.01
BChE [5]; 298 K
  Ksv: 5250 L/mol
  n (binding sites): 1.052
  ∆G: -5.373 kcal/mol
  quenching rate constant (Kq): 5.25e+11 M⁻¹ s⁻¹
  Kd: 11.6 µM
BChE [5]; 304 K
  Ksv: 4720 L/mol
  n (binding sites): 1.035
  ∆G: -5.308 kcal/mol
  Kd: 14.9 µM
BChE [5]; 310 K
  Ksv: 4250 L/mol
  n (binding sites): 1.014
  ∆G: -5.244 kcal/mol
  Kd: 20.4 µM
BChE [5]
  ∆H: -8.549 kcal/mol
  ∆S: −44.61 J·mol^−1·K^−1
PC12 cells [2]; [6]
  neuroprotective activity: significant neuroprotective activities
PC12 cells [2]
  viability at 50 µM: 66%
[3]
  IC50: 15.3 ± 3.84 µM

From paper PMC12113681, “Discovery, Biological Evaluation and Binding Mode Investigation of Novel Butyrylcholinesterase Inhibitors Through Hybrid Virtual Screening” (Molecules, 2025)
